Measured values taken from patent publication US5585381A, “Pyrimidine derivatives and pharmaceutical composition” (Kureha Chemical Industry Co., Ltd., priority 1994, dated 1996).
pIC50: −log10 of the molar value.

What was measured:
[1] = biological target: T1, angiotensin II receptor subtype 1 (AT1) (Oryctolagus cuniculus, UniProt P34976); assay: Binding to angiotensin II receptor subtype 1 (AT1); design: species or system rabbits (adrenal glands); conditions: 3H-angiotensin II tracer; for pIC50: room temperature, 3 hours
T1 construct: from adrenal glands in rabbits; from tissue; host or cells: rabbit adrenal glands
T1 sequence (P34976 1-359): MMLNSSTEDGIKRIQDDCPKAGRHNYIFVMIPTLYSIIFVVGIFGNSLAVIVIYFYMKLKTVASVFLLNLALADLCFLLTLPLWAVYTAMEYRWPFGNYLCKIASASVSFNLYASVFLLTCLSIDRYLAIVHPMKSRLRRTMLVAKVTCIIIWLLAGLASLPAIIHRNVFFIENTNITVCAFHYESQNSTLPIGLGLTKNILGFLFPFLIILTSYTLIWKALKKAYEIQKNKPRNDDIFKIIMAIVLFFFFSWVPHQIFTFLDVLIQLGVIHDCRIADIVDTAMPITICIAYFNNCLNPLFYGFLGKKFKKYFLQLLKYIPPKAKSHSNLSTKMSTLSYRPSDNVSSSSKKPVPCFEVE
Protocol: (§1) In this Example, the affinity to the angiotensin II receptor subtype 1 or subtype 2 was evaluated by a binding assay in accordance with the method described in Biochem. Pharmacol., 33, 4057-4062 (1984).
(§2) Specifically, the measurement of the total binding in the presence of each drug was performed as follows:
(§3) A mixture (final volume=0.25 ml) of a drug in a given concentration (the drug was dissolved in DMSO, and diluted to a double volume with a buffer attached to a drug discovery system to prepare sample for the assay; 0,025 ml), a tracer (0.025 ml), and receptors (0.2 ml) was incubated [in the case of the angiotensin II receptor subtype 1 (AT1), at room temperature for 3 hours, and in the case of the subtype 2 (AT2), at 37° C. for 1 hour]. Then, the reaction mixture was filtered with suction (GF/C filter was used in AT1, and GF/B filter was used in AT2). The filter papers after filtration with suction (the tracer bound to the receptors) were counted by a γ-well counter (ARC-500, Aloka). The non-specific bindings were measured by repeating the above method, except that a large excess amount of a displacer was added. The specific binding of the drug in the given concentration was calculated by subtracting the non-specific binding from the total binding, respectively.
(§4) In AT1 and AT2, the percentages to inhibit the bindings of radioactive ligands (tracer) to receptors by the drugs to be tested (IC50 value of concentration to show 50% inhibition, or binding inhibition % in 100 μM) were measured, using the drugs to be tested and control drugs in the given concentration.

[2] = biological target: T2, angiotensin II receptor subtype 2 (AT2) (Bos taurus, UniProt G5E6F7); assay: Binding to angiotensin II receptor subtype 2 (AT2); design: species or system bovine (cerebellar cortex); conditions: 125I-Tyr4-angiotensin II tracer, 37° C., 1 hour
T2 construct: from cerebellar cortex in bovine; from tissue; host or cells: bovine cerebellar cortex
T2 sequence (G5E6F7 1-362): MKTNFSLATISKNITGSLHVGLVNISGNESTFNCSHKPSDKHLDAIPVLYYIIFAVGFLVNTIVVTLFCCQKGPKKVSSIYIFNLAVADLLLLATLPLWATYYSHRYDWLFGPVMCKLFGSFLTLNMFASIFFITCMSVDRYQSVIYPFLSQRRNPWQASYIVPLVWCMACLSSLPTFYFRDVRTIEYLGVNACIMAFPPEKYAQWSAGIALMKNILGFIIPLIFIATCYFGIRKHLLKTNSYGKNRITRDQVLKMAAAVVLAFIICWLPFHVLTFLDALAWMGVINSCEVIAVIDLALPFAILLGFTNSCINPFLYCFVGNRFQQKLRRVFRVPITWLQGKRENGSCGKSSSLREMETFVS
Protocol: as §1, §2, §3, §4
from cerebellar cortex in bovine
tracer: ^125 I-Tyr^4 -angiotensin II

[3] = tested on: kidney disease model rats; assay: Action to depress blood pressure in kidney disease model rats (tail cuff); type: in vivo, Sprague-Dawley female rats; conditions: 20 mg/kg per os; after two days; control 210 mmHg
Protocol: (§5) The compounds of the present invention and the reference substance were forcedly administered per os to kidney disease model rats, and the action to depress blood pressure was observed. The kidney disease model rats were prepared by ligature of branches of renal artery in accordance with the conventional method, that is, the left hilum renalis of Sprague-Dawley female rats was exposed under anesthesia, and one of four secondary branches of renal artery was left unligated, while the remaining three branches were ligated, respectively. After a week, the hilum renalis (artery, vein, and ureter) of the right kidney were further ligated to thereby prepare the rats whose renal function was lowered to approximately 1/8 of the normal function. Each group consisted of eight rats. The drugs to be tested (20 mg/kg) were administered to each administering group, and only water was administered to control group. After two days from the administration, the systolic blood pressure was measured by the tail cuff method using a blood pressure measuring apparatus (UR5000; Ueda).

[4] = tested on: kidney disease model rats; assay: Renal function indicatory value (action to kidney diseases); type: in vivo, Sprague-Dawley female rats; conditions: 20 mg/kg/day per os, two weeks; for Creatinine clearance (CCr): control 0.20; for Creatinine (serum, Scr): control 2.0; for Urea nitrogen (BUN): control 100
Protocol: The kidney disease model rats were prepared by ligature of branches of renal artery in accordance with the conventional method, that is, the left hilum renalis of Sprague-Dawley female rats was exposed under anesthesia, and one of four secondary branches of renal artery was left unligated, while the remaining three branches were ligated, respectively. […] Each group consisted of eight rats. The drugs to be tested (20 mg/kg) were administered to each administering group, and only water was administered to control group. After two days from the administration, the systolic blood pressure was measured by the tail cuff method using a blood pressure measuring apparatus (UR5000; Ueda).
The kidney disease model rats were prepared as in Example 21. Fifteen groups (8 rats per group) were sleeked in a manner so that there were no major differences between each group in the serum creatinine value and the urea nitrogen value indicating renal function. The rats in each group were allowed to freely take up feed and water. […] To the rats in the control group, only water was forcedly administered per os every day. After two weeks, 0.2 ml of blood was collected from the carotid artery of the rat under anesthesia, and centrifuged to obtain serum. Using 25 μl of the serum, serum creatinine (Scr) was measured by a creatinine analytical instrument (Beckman). Using 10 μl of the serum, urea nitrogen (BUN) was measured by a BUN analytical instrument (Beckman). Creatinine clearance was evaluated as follows:
After serum creatinine measurement, rats were placed in urinary metabolic cages for 24 hours to collect urine. Urinary creatine concentration (Ucr) was measured by a creatinine analytical instrument, and total volume of urination (Uvol) was also measured. Creatinine clearance (CCr) was calculated by the following formula: [formula]

[5] = tested on: kidney disease model rats; assay: Action to survival time of kidney diseased animals; type: in vivo, Sprague-Dawley female rats; conditions: 20 mg/kg/day per os; observation eight weeks (upper limit); control 5.0
Protocol: as §5
The kidney disease model rats were prepared as in Example 21. Fifteen groups (8 rats per group) were prepared in a manner so that there was no major difference between the groups in the serum creatinine value and the urea nitrogen value indicating renal function. The rats in each group were allowed to freely take up feed and water. […] To the rats in the control group, only water was forcedly administered per os every day. If kidney diseases are aggravated, the rat will die of uremia. Thus, the survival time was observed as comprehensive indication of the improvement effect on the kidney diseases. The observation period was eight weeks. Thus if all rats survived, the average survival time is eight weeks and it is an upper limit.

[6] = ACE inhibitor; cited from earlier work

Structure (SMILES)	inhibition at 100 µM [1] [%]	inhibition at 100 µM [2] [%]	Blood pressure (average systolic) [3] [mmHg]	Creatinine clearance (CCr) [4] [mL/min]	Creatinine (serum, Scr) [4] [mg/dL]	Urea nitrogen (BUN) [4] [mg/dL]	Average survival time [5] [weeks]	pIC50 [1]	blood pressure [6]	progress of renal dysfunction [6]
CCCCC(=O)Nc1c(NCc2ccccc2)ncnc1NCc1ccc(C(=O)O)cc1 [Compound No. 7, 4-[[(6-benzylamino-5-valeramido)pyrimidin-4-yl]aminomethyl]benzoic acid]	1	0	208	0.33	1.6	80	7.0			
CCCCC(=O)Nc1c(NCCc2ccccc2)ncnc1NCc1ccc(C(=O)O)cc1 [Compound No. 8, 4-[[(6-phenethylamino-5-valeramido)pyrimidin-4-yl]aminomethyl]benzoic acid]	0	0	203	0.33	1.6	79	7.1			
CCCCC(=O)Nc1c(NCCCc2ccccc2)ncnc1NCc1ccc(C(=O)O)cc1 [Compound No. 9, 4-[[(6-phenylpropylamino-5-valeramido)pyrimidin-4-yl]aminomethyl]benzoic acid]	6	0	204	0.31	1.6	80	6.9			
CCCCC(=O)Nc1c(NCc2ccc(OC)cc2)ncnc1NCc1ccc(C(=O)O)cc1 [Compound No. 10]	6	0	208	0.33	1.6	81	7.0			
CCCCC(=O)Nc1c(NCc2ccc(C(=O)O)cc2)ncnc1OCc1ccccc1 [Compound No. 11, 4-[[(6-benzyoloxy-5-valermido)pyrimidin-4-yl]aminomethyl]benzoic acid]			202	0.35	1.6	78	7.5	4.82		
CCCCC(=O)Nc1c(Cl)ncnc1NCc1ccc(OC)cc1 [Compound No. 48, 4-[[(6-Chloro-5-Valeramido)pyrimidin-4-yl]aminomethyl]anisole]	0	0	207	0.30	1.7	83	6.9			
CCCCC(=O)Nc1c(NCc2ccc(C(=O)O)cc2)ncnc1N(C)Cc1ccccc1 [Compound No. 61, 4-[[(6-N-benzylmethylamino-5-valeramido)pyrimidin-4-yl]aminomethyl]benzoic acid]	42	0	205	0.32	1.6	81	6.9			
CCCCC(=O)Nc1c(NCc2ccccc2)ncnc1NCc1ccc(OC)cc1 [Compound No. 89, 4-[[(6-benzylamino-5-valeramido)pyrimidin-4-yl]aminomethyl]anisole]	11	0	204	0.33	1.6	80	7.0			
C[C@H](CS)C(=O)N1CCC[C@H]1C(=O)O [captoril]									blood pressure is lowered	the progress of renal dysfunction is improved
CCCCC(=O)Nc1c(NCc2ccc(C(=O)O)cc2)ncnc1OC [compound 2, 4-[[(6-methoxy-5-valeramido)pyrimidin-4-yl]aminomethyl]benzoic acid]		0	201	0.35	1.6	78	7.5	4.55		
CCCCC(=O)Nc1c(NCCc2ccccc2)ncnc1NCc1ccc(OC)cc1 [compound 90, 4-[[(6-phenethylamino-5-valeramido)pyrimidin-4-yl]aminomethyl]anisole]	20	0	208	0.29	1.7	82	6.9			
CCOC(=O)[C@H](CCc1ccccc1)N[C@@H](C)C(=O)N1CCC[C@H]1C(=O)O [enalapril]									blood pressure is lowered	the progress of renal dysfunction is improved
